In ChEMBL document CHEMBL4673239, “Discovery of Tyrosine Kinase 2 (TYK2) Inhibitor (PF-06826647) for the Treatment of Autoimmune Diseases” (J Med Chem, 2020):
Values after ≈ are worked out from the molar mass of the structure shown. Active and inactive are the calls of the source. The calls are words filed in the database; no cut-off is given here.

Assays:
[1] = Cmax in Sprague-Dawley rat at 3 mg/kg, po using SDD formulation; format: ADME, organism-based; parameters: route oral, dose 3 mg/kg; settings: in vivo
[2] = Apparent permeability in MDCK-II cells; format: ADME, cell-based, Canis lupus familiaris; settings: dog
[3] = Dissociation constant, basic pKa of compound; format: physicochemical
[4] = Clearance in Sprague-Dawley rat at 1 mg/kg, iv; format: ADME, organism-based; settings: in vivo
[5] = tested on: Mus musculus; assay: Antiinflammatory activity in imiquimod-induced mouse model of skin inflammation assessed as reduction in ear swelling at 30 mg/kg, po qd relative to control; format: functional; parameters: scale not given: the % may be the effect or the level left
[6] = AUC infinity in Sprague-Dawley rat at 1 mg/kg, iv; format: ADME, organism-based; parameters: time infinity, route intravenous, dose 1 mg/kg; settings: in vivo
[7] = Protein binding in human plasma; format: ADME, cell-free
[8] = tested on: Mus musculus; assay: Antiinflammatory activity in imiquimod-induced mouse model of skin inflammation assessed as reduction in IL12 stimulation at 1 mg/kg, po qd; format: functional; parameters: scale not given: the % may be the effect or the level left
[9] = Cmax in Sprague-Dawley rat at 30 mg/kg, po using SDD formulation; format: ADME, organism-based; parameters: route oral, dose 30 mg/kg; settings: in vivo
[10] = Fraction unbound in human plasma; format: ADME, cell-free
[11] = Unbound drug level in imiquimod-induced mouse model of skin inflammation at 3 mg/kg, po qd; format: ADME, organism-based; settings: in vivo
[12] = Renal excretion in rat; format: ADME, Kidney; settings: urine, read-out: Drug excretion
[13] = tested on: Mus musculus; assay: Antiinflammatory activity in imiquimod-induced mouse model of skin inflammation assessed as reduction in ear swelling at 10 mg/kg, po qd relative to control; format: functional; parameters: scale not given: the % may be the effect or the level left
[14] = Unbound drug level in imiquimod-induced mouse model of skin inflammation at 1 mg/kg, po qd; format: ADME, organism-based; settings: in vivo
[15] = Oral bioavailability in Sprague-Dawley rat at 3 mg/kg using SDD formulation; format: ADME, organism-based; settings: in vivo
[16] = Unbound drug level in imiquimod-induced mouse model of skin inflammation at 10 mg/kg, po qd; format: ADME, organism-based; settings: in vivo
[17] = Volume of distribution at steady state in Sprague-Dawley rat at 1 mg/kg, iv; format: ADME, organism-based; settings: in vivo, read-out: Vdss
[18] = Oral bioavailability in Sprague-Dawley rat at 3 mg/kg using crystalline form of sample; format: ADME, organism-based; settings: in vivo
[19] = Oral bioavailability in Sprague-Dawley rat at 30 mg/kg using SDD formulation; format: ADME, organism-based; settings: in vivo
[20] = physchem; settings: octanol/water phosphate buffer, pH 7.4
Description: Octanol/water phosphate buffer partition coefficient, log D of compound at pH 7.4 by shake-flask method

[21] = AUC infinity in Sprague-Dawley rat at 3 mg/kg, po using SDD formulation; format: ADME, organism-based; parameters: time infinity, route oral, dose 3 mg/kg; settings: in vivo
[22] = tested on: Mus musculus; assay: Antiinflammatory activity in imiquimod-induced mouse model of skin inflammation assessed as reduction in ear swelling at 1 mg/kg, po qd; format: functional, organism-based
[23] = Thermodynamic solubility of the compound at pH 7.4 using crystalline form of sample; format: physicochemical; settings: read-out: Therm_solubility
[24] = tested on: Mus musculus; assay: Antiinflammatory activity in imiquimod-induced mouse model of skin inflammation assessed as reduction in ear swelling at 3 mg/kg, po qd relative to control; format: functional; parameters: scale not given: the % may be the effect or the level left
[25] = Clearance in human liver microsomes assessed per mg protein; format: ADME, Microsome; settings: read-out: CLH
[26] = Unbound drug level in imiquimod-induced mouse model of skin inflammation at 30 mg/kg, po qd; format: ADME, organism-based; settings: in vivo
[27] = AUC infinity in Sprague-Dawley rat at 30 mg/kg, po using SDD formulation; format: ADME, organism-based; parameters: time infinity, route oral, dose 30 mg/kg; settings: in vivo
[28] = tested on: Mus musculus; assay: Antiinflammatory activity in imiquimod-induced mouse model of skin inflammation assessed as reduction in IL12 stimulation at 30 mg/kg, po qd; format: functional; parameters: scale not given: the % may be the effect or the level left
[29] = Oral bioavailability in Sprague-Dawley rat at 30 mg/kg using crystalline form of sample; format: ADME, organism-based; settings: in vivo
[30] = Protein binding in rat plasma; format: ADME, cell-free; settings: read-out: PPB (converted)
[31] = tested on: Mus musculus; assay: Antiinflammatory activity in imiquimod-induced mouse model of skin inflammation assessed as reduction in IL12 stimulation at 3 mg/kg, po qd; format: functional; parameters: scale not given: the % may be the effect or the level left
[32] = Bile excretion in rat; format: ADME; settings: read-out: Drug excretion
[33] = tested on: Mus musculus; assay: Antiinflammatory activity in imiquimod-induced mouse model of skin inflammation assessed as reduction in IL12 stimulation at 10 mg/kg, po qd; format: functional; parameters: scale not given: the % may be the effect or the level left

Compound `Cn1cc(-c2cn3nccc3c(-c3cnn([C@]4(CC#N)C[C@@H](C#N)C4)c3)n2)cn1` [ROPSACITINIB] has a Cmax [1] of 369 ng/mL, a Papp [2] of 17 ×10⁻⁶ cm/s and a pKa [3] of under 1.7. The clearance [4] was 12 mL/min/kg, the Activity [5] was 46.2% and the AUC(0-inf) [6] was 1380 ng·h/mL. The PPB [7] was 38%, the Activity [8] was 51% and the Cmax [9] was 2780 ng/mL. For the same compound, the Fu [10] was 0.38, the “Drug uptake(free)” value [11] was 45.7 nM and the dose excreted [12] was 1.3%. The Activity [13] was 34%, the “Drug uptake(free)” value [14] was 14.5 nM and the bioavailability [15] was 58%. For the same compound, the “Drug uptake(free)” value [16] was 225 nM, the Vd [17] was 1.1 L/kg and the bioavailability [18] was 15%. It also gave a bioavailability [19] of 63%, a logD [20] of 1.7 and an AUC(0-inf) [21] of 2390 ng·h/mL. The Activity [22] was “inactive”, the solubility thermodynamic [23] was 0.8 µM (≈ 0.307 µg/mL) and the Activity [24] was 31.3%. The microsomal CLint [25] was under 8 µL/min/mg, the “Drug uptake(free)” value [26] was 668 nM and the AUC(0-inf) [27] was 25900 ng·h/mL. The Activity [28] was 98%, the bioavailability [29] was 8% and the fraction unbound [30] was 0.82. The Activity [31] was 77%, the dose excreted [32] was 0.9% and the Activity [33] was 94%.
